This note sets out measurements from US7485434B2, “Method for screening compounds for those that modulate transducers of regulated CREB activity” (The Salk Institute for Biological Studies, priority 2005, dated 2009).

Experiment [1] deals with AMPK (AMP-activated protein kinase). The experiment is described as follows: In vitro kinase assay of GST-TORC2 (161-181) with purified AMPK. The experiment is classed as biochemical. To be noted: 300 μM AMP. An excerpt: Specifically, FIG. 20A illustrates the relative phosphorylation of wild-type or Ser171 Ala mutant recombinant GST-TORC2 (161-181) compared to GST only or optimal AMPK peptide substrate (SAMS) by activated AMPK in vitro. Addition of AMP to reactions is shown. The relative incorporation of γ^32P-ATP by each substrate is indicated.
Recombinant GST-TORC2 (161 -181) wild-type and Ser171 Ala proteins were phosphorylated in vitro with 100 mU purified AMPK (AMP-activated protein kinase) (Upstate Biotech) ±300 μM AMP according to the manufacturer's instructions. Following 15 mm. incubation with γ-^32P-ATP, relative ^32P incorporation was measured by scintillation. GST substrates and SAMS peptide were used at 3 μM in each reaction.
By contrast with SIK, ATP depletion appears to be uniquely sensed by AMPK, the founding member of this family (see Sakamoto et al., 2004; Lizcano et al., 2004; Bananjee et al., 2004; and Radzuik et al., 2003). The presence of a consensus AMPK phosphorylation site (Ser171) that modulates TORC2 activity in liver prompted examination of whether AMPK inhibits gluconeogenesis via phosphorylation of TORC2 in response to ATP depletion. Activated AMPK phosphorylated wild-type, but not Ser171Ala mutant GST-TORC2 (161-181) peptide in vitro (see FIG. 20A).

Experiment [2] has as its system TORC2. The experiment is described as follows: EVX-1 reporter assay in HIT cells co-transfected with TORC2 expression vector. It is filed as cell-based, Hamster.
Description: Cells were treated with forskolin or KCl as indicated.
A further experiment has as its system SIK1. The experiment is described as follows: SIK1 mRNA levels in primary rat hepatocytes. It is filed as cell-based. The source says: FIG. 18F summarizes the effect of FSK treatment on SIK1 mRNA levels in primary rat hepatocytes. Cells were infected with control (GFP) or dominant negative A-CREB adenovirus as indicated.
Based on the ability of CHX to disrupt TORC2 Ser171 phosphorylation, it was hypothesized that glucagon induces the expression of an inhibitory kinase during the attenuation period. […] Indeed, fasting induced SIK1 mRNA and protein levels in liver 4-fold relative to feeding conditions, whereas expression of other SIK family members (SIK2 and SIK3) was unaffected (see FIGS. 18D and 18E).

Experiment [3] deals with CREB-dependent EVX-1 promoter. The experiment can be described thus: Transient transfection assay of HIT insulinoma cells with CREB-dependent EVX-1 luciferase reporter. It is filed as cell-based, Hamster. To be noted: for induction of CREB-dependent EVX-1 promoter: single stimulus (KCl 45 mM or forskolin), 6 hr. The procedure: Specifically, FIG. 1A summarizes the results of a transient transfection assay of HIT insulinoma cells transfected with the CREB-dependent EVX-1 luciferase reporter. Cells were treated with KCl (45 mM) and/or forskolin (10 nM) for six hours as indicated.
HEK293T, HIT or PC 12 cells were co-transfected with EVX or GAL4-LUC reporter plasmid, RSV-beta galactosidase and FLAG-TORC and/or SIK2 expression plasmids overnight using Lipofectamine 2000 (Invitrogen, Carlsbad, Calif.). DNA/lipid complexes were washed the next day and extracts prepared 24 h (293T and PC 12) or 40 hr (HITs) after transfection. […] Luciferase values were normalized to β-gal activity from co-transfected RSV-beta galactosidase activity in the corresponding sample.
Hamster insulinoma (HIT) cells were employed to test the relative effects of cAMP and calcium signals on CREB activity. Opening of voltage-sensitive L-type calcium channels in response to KC1 depolarization induced the CREB-dependent EVX-1 promoter (Conknight et al., 2003b) 5-fold in HIT cells, whereas addition of cAMP agonist stimulated the reporter 10-fold (see FIG. 1A). […] Consistent with the effects of calcium channel activity on the EVX-1 promoter, treatment with high glucose (20 mM) induced the expression of the endogenous CREB target gene NR4A2 5-fold in MIN6 insulinoma cells; and co-stimulation with glucose plus exendin-4, an analogue of the incretin hormone GLP-1, enhanced NR4A2 mRNA levels 35-fold (see FIG. 1B).
(A reporter such as luciferase makes a cellular process visible.)

In experiment [4] the test system is CREB:CBP complex (KID:KIX interaction). The experiment is described as follows: Mammalian two-hybrid assay GAL4-KID / KIX-VP16 in HIT cells. The experiment is classed as cell-based, Hamster.
For the next experiment, the system named is GAL4-CREB. The experiment is described as follows: GAL4-CREB transient GAL4 luciferase reporter assay in HIT cells. The experiment is classed as cell-based, Hamster.
Another experiment concerns phospho (Ser133) CREB. The experiment can be described thus: Western blot of phospho (Ser133) CREB levels in HIT cells. It is filed as cell-based, Hamster. To be noted: forskolin 10 μM or KCl 45 mM. The procedure: FIG. 1C is a Western blot assay of phospho (Ser133) CREB levels in HIT cells following treatment with KCl (45 mM), forskolin (10 μM), or both together for 30 minutes.
FIG. 9 illustrates the time course (in minutes) of CREB Ser133 phosphorylation in HIT cells following treatment with forskolin (10 μM) or KCl (45 mM). […] Immunoreactive bands correspond to phospho (Ser133) CREB (top) and phospho (Ser63) ATF1 (bottom).
Western blot analyses were conducted on whole cell, cytoplasmic and nuclear extracts with the following rabbit polyclonal antisera: phospho (Ser133) specific affinity purified 5322 and phospho (Ser133) specific antibody from Rockland Immunochemicals, Gilbertsville, Pa.), non-discriminating CREB (244), phosphor (Ser171) CREB, TORC2, pan-TORC, SIK1 and SIK2. 14-3-3 and Hsp90 antibodies were from Santa Cruz (Santa Cruz, Calif.). FLAG-M2 (Sigma) and GAL4 (Santa Cruz) monoclonal antibodies were used at 1:2000 and 1:1000 dilutions, respectively. For quantitative western blotting, goat anti-mouse-800 nm fluorophore conjugate to detect FLAG-M2 was used at 1:40,000 dilution according to manufacturer's instructions (Licor) prior to analysis using the Odyssey detection system. GST-pulldowns were performed as described (Asahara et al., 2001). […]
(In western blotting, separated proteins are transferred to a membrane and probed.)

The test system of the next experiment is CREB. The experiment can be described thus: CREB Ser133 phosphorylation in liver after IP injection (histochemical and Western blot). The experiment is classed as in vivo. To be noted: mice; intraperitoneal administration.
Experiment [5] has as its system TORC2. The experiment can be described thus: TORC2 localization, Ser171 phosphorylation and promoter recruitment in liver after IP injection. The experiment is classed as in vivo. The conditions noted are these: mice; IP administration.
The test system of the next experiment is primary rat hepatocytes. The experiment can be described thus: Glucose output from primary rat hepatocytes. It is filed as cell-based. To be noted: FSK/DEX. The procedure:
FIG. 17C summarizes the effect of TORC on glucose output from primary rat hepatocytes in response to fasting and feeding signals. Cells were infected with TORC1, TORC2, or control GFP adenovirus and then treated with FSK plus dexamethasone (FSK/DEX) for four hours. The effect of insulin on glucose output is shown.
Rat primary hepatocytes were prepared from 200-300g of Sprague-Dawley rats by collagenase perfusion method as described previously (see Koo et al., 2004). 1×10^6 cells were plated in 6 well plates with medium 199 (Invitrogen, Carlsbad, Calif.) supplemented by 10% FBS, 10 units/ml penicillin, 10 μg/ml streptomycin, and 10 nM dexamethasone for 3-6 hours. After attachment, cells were infected with adenoviruses for 16 hours. Subsequently, cells were maintained in medium 199 without FBS and dexamethasone for 24 hours (for cDNA expression adenoviruses) or 48 hours (for RNAi adenoviruses) and […] forskolin or 100 nM glucagon for 2 hours unless noted otherwise. For experiments with cycloheximide, 10 μg/ml cycloheximide was added 30 minutes prior to the addition of 100 nM glucagon.
The ability of TORC2 to modulate gluconeogenic gene expression in hepatocytes exposed to cAMP agonist is consistent with the proposal that this coactivator modulates glucose output from the liver in response to fasting signals.

The test system of a further experiment is TORC:14-3-3 complexes. The experiment can be described thus: Co-immunoprecipitation of TORC with endogenous 14-3-3 proteins. It is filed as cell-based. The conditions noted are these: basal and cAMP stimulated conditions; CsA 5 μM, OA 100 nM. The source says: FIGS. 5A-5D illustrate that 14-3-3 proteins associate with and repress TORC activity. Specifically, FIG. 5A, top panel, presents the results of a coimmunoprecipitation assay of Flag-TORC1 with endogenous 14-3-3 proteins in HEK293T cells. The effect of forskolin (F) treatment on the TORC 1: 14-3-3 association is shown. […] FIG. 5A, bottom left panel, is a Western blot assay of 14-3-3 proteins recovered from TORC or control 1 gG immunoprecipitates, illustrating the effect of forskolin treatment on endogenous TORC: 14-3-3 complexes in PC12 and HEK293T cells. Input levels of 14-3-3 and TORC proteins are shown. […] FIG. 5A, bottom right panel, illustrates the kinetics of TORC2 dissociation from endogenous 14-3-3 proteins in response to forskolin treatment of HEK293T cells. The levels of Flag-tagged TORC 2 (FLAG-T2) recovered from flag immunoprecipitates at each time point is shown below.
Rabbit pan-TORC (raised against 1-42 of human TORC1) and TORC2 selective rabbit polyclonal antiserum (raised against amino acids 454-607 of mouse TORC2) were generated as previously described (Conkright et al., 2003a)). Whole cell protein was extracted from cultured HEK293T, HIT, and MIN6 cells in Laemmli SDS sample buffer. Alternatively, whole cell protein was extracted from liver tissue or primary hepatocytes in SDS-urea-lysis buffer. […]

Regarding `Nc1ncnc2c1ncn2[C@@H]1O[C@H](COP(=O)(O)O)[C@@H](O)[C@H]1O` [AMP], the “phosphorylation of TORC by AMPK” value in [1] is given as “induced”.

In the case of `C=C[C@@]1(C)CC(=O)[C@]2(O)[C@@]3(C)[C@@H](O)CCC(C)(C)[C@@H]3[C@H](O)[C@H](OC(C)=O)[C@@]2(C)O1` [forskolin, Forskolin], the “further potentiation of EVX-1 reporter in TORC2 over-expressing cells” value in the experiment with TORC2 [2] came to 25 fold. The “induction of SIK1 mRNA levels” value in the experiment on SIK1 was found to be 20 fold. In experiment [3] (co-stimulation with both forskolin and KCl), the “stimulation of CREB activity (EVX-1 reporter)” value is 80 fold. Further, the “induction of CREB-dependent EVX-1 promoter” value in [3] is given as 10 fold. Besides, the “stimulation of KID:KIX interaction (GAL4 luciferase reporter)” value in experiment [4] (6 hours) stood at 20 fold. In addition, the “induction of GAL4 reporter activity via GAL4-CREB” value with GAL4-CREB (KCl and forskolin in combination) was 22 fold; in the experiment on GAL4-CREB (added individually), 5 fold.

As to `[Cl-].[K+]` [KCl], the “further potentiation of EVX-1 reporter in TORC2 over-expressing cells” value with TORC2 [2] stood at 30 fold. Moreover, the “induction of CREB-dependent EVX-1 promoter” value in experiment [3] is 5 fold. Further, the “levels of CREB Ser133 phosphorylation” value in the experiment with phospho (Ser133) CREB is “increased levels of CREB Ser133 phosphorylation”. For the same molecule, the “effect on KID:KIX interaction” value in experiment [4] (KCl depolarization alone) was “had no effect”. In addition, the “induction of GAL4 reporter activity via GAL4-CREB” value in the experiment with GAL4-CREB (added individually) was found to be 2 fold. In the experiment with GAL4-CREB (lacking bZIP domain (aa. 284-341)), the “response of truncated GAL4-CREBΔbZIP polypeptide” value is “no induction”.

For the molecule insulin, the “CREB Ser133 phosphorylation in liver” value with CREB is reported as “comparable effects on Ser133 phosphorylation”. In the experiment with TORC2 [5], the “TORC2 phosphorylation at Ser171 in liver” value is listed as “highly phosphorylated at Ser171” and the “nuclear translocation of hepatic TORC2” value is recorded as “did not stimulate nuclear entry of TORC2”. Besides, the “effect on glucose output from TORC over-expressing cells” value with primary rat hepatocytes was “disrupted”.

As for `C=C1[C@@H](O)[C@@H]2O[C@]3(CC[C@H](/C=C/[C@@H](C)[C@@H]4CC(C)=C[C@@]5(O[C@H](C[C@@](C)(O)C(=O)O)CC[C@H]5O)O4)O3)CC[C@H]2O[C@@H]1[C@@H](O)C[C@H](C)[C@H]1O[C@@]2(CCCCO2)CC[C@H]1C` [okadaic acid], the “effect of phosphatase inhibitor on TORC:14-3-3 complex formation” value in the experiment with TORC:14-3-3 complexes is recorded as “had no effect on this interaction”.
